In ChEMBL document CHEMBL1201862, “PubChem BioAssay data set” (2004):
Structures can show the parent of a compound that is named as a salt.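 All cell lines were grown in 96-well plates and treated with compound for 48 hours. GI50 = concentration required for 50% inhibition of growth.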 Activity calls are given as the source filed them. No stated cut-off is given here; in the data, active = GI50 up to about 1.1 µM and inactive = higher.

How the values were obtained:
Test in all cases: inhibition of tumour cell growth, NCI panel, 48 h
[1] = system: ACHN
[2] = system: CAKI-1
[3] = system: CCRF-CEM
[4] = system: COLO 205
[5] = system: HCT-116
[6] = system: KM12
[7] = system: LOX IMVI
[8] = system: MDA-MB-231
[9] = system: MDA-MB-435
[10] = system: Malme-3M
[11] = system: NCI-H23
[12] = system: NCI-H522
[13] = system: NCI/ADR-RES
[14] = system: OVCAR-3
[15] = system: OVCAR-8
[16] = system: PC-3
[17] = system: RPMI-8226
[18] = system: SF-268
[19] = system: T47D
[20] = system: UO-31

SMILES | GI50 [1] | GI50 [2] | GI50 [3] | GI50 [4] | GI50 [5] | GI50 [6] | GI50 [7] | GI50 [8] | GI50 [9] | GI50 [10] | GI50 [11] | GI50 [12] | GI50 [13] | GI50 [14] | GI50 [15] | GI50 [16] | GI50 [17] | GI50 [18] | GI50 [19] | GI50 [20]
O=C1/C(=C/c2ccccc2)CN(C(=O)/C=C/c2ccccc2)C/C1=C\c1ccccc1 | 14.2 µM (inactive) | 23.7 µM (inactive) | 2.85 µM (inactive) | 4.92 µM (inactive) | 0.764 µM (active) | 4.17 µM (inactive) | 2.55 µM (inactive) | 3.18 µM (inactive) | 1.93 µM (inactive) | 16.1 µM (inactive) | 12.4 µM (inactive) | 8.99 µM (inactive) | 1.86 µM (inactive) | 7.13 µM (inactive) | 4.88 µM (inactive) | 2.03 µM (inactive) | 1.07 µM (active) | 11.2 µM (inactive) | 4.43 µM (inactive) | 12.4 µM (inactive)
CC(=O)OC1CCN(C(=O)c2ccccc2)CC1CC1(c2cc3ccccc3[nH]2)OCCO1 (stereo not drawn) | > 100 µM (inactive) | > 100 µM (inactive) | 48.3 µM (inactive) | 53.1 µM (inactive) | 72.6 µM (inactive) | 67.5 µM (inactive) | 83.2 µM (inactive) | > 100 µM (inactive) | 42.8 µM (inactive) | > 100 µM (inactive) | 69.2 µM (inactive) | 78.9 µM (inactive) | 51.6 µM (inactive) | 53.1 µM (inactive) | 73.1 µM (inactive) | 34.9 µM (inactive) | 22.3 µM (inactive) | – | 34 µM (inactive) | 29 µM (inactive)
CSc1cc(Cl)c(C)cc1S(=O)(=O)NC(=O)NNc1ccc(C)cc1 | 30.7 µM (inactive) | 82 µM (inactive) | > 100 µM (inactive) | > 100 µM (inactive) | > 100 µM (inactive) | 78.3 µM (inactive) | > 100 µM (inactive) | > 100 µM (inactive) | > 100 µM (inactive) | > 100 µM (inactive) | – | > 100 µM (inactive) | 64.3 µM (inactive) | > 100 µM (inactive) | > 100 µM (inactive) | 43.5 µM (inactive) | – | > 100 µM (inactive) | 61.9 µM (inactive) | –
COC(=O)Nc1nc2cc(C(=O)c3ccc[nH]3)ccc2[nH]1 | – | 0.332 µM (active) | 0.577 µM (active) | 0.342 µM (active) | 0.267 µM (active) | 0.49 µM (active) | 0.462 µM (active) | 20.6 µM (inactive) | 0.117 µM (active) | 0.418 µM (active) | 6.87 µM (inactive) | 0.402 µM (active) | 0.465 µM (active) | – | 3.18 µM (inactive) | 0.348 µM (active) | 0.49 µM (active) | 2.04 µM (inactive) | 0.959 µM (active) | 1.21 µM (inactive)
SC1=NC2=C(CSC/C2=C\c2cccc(Br)c2)C(c2cccc(Br)c2)N1 (stereo not drawn) | > 100 µM (inactive) | > 100 µM (inactive) | 65.9 µM (inactive) | 36.2 µM (inactive) | 43.7 µM (inactive) | 88.5 µM (inactive) | > 100 µM (inactive) | > 100 µM (inactive) | 41.3 µM (inactive) | > 100 µM (inactive) | 63.4 µM (inactive) | > 100 µM (inactive) | 61.9 µM (inactive) | > 100 µM (inactive) | > 100 µM (inactive) | 46.7 µM (inactive) | 64.7 µM (inactive) | > 100 µM (inactive) | 25 µM (inactive) | –
NC(CC(=O)O)(Cc1ccccc1)C(=O)O (stereo not drawn) | > 100 µM (inactive) | > 100 µM (inactive) | > 100 µM (inactive) | > 100 µM (inactive) | > 100 µM (inactive) | > 100 µM (inactive) | > 100 µM (inactive) | > 100 µM (inactive) | > 100 µM (inactive) | > 100 µM (inactive) | > 100 µM (inactive) | > 100 µM (inactive) | > 100 µM (inactive) | > 100 µM (inactive) | > 100 µM (inactive) | > 100 µM (inactive) | > 100 µM (inactive) | – | > 100 µM (inactive) | > 100 µM (inactive)
CSc1ncnc2c1ncn2C1OC(CO)C(O)OC1O (stereo not drawn) | 0.643 µM (active) | 2.58 µM (inactive) | 0.0579 µM (active) | 1.8 µM (inactive) | 0.4 µM (active) | 0.789 µM (active) | 0.361 µM (active) | 0.396 µM (active) | 1.7 µM (inactive) | 14 µM (inactive) | 0.721 µM (active) | 3.34 µM (inactive) | 2.56 µM (inactive) | 0.348 µM (active) | 2.12 µM (inactive) | 2.26 µM (inactive) | 1.06 µM (active) | 7.69 µM (inactive) | 0.612 µM (active) | 1.79 µM (inactive)
Cc1nc(-c2ccc(Cl)cc2)cn2c1nc1ccccc12 | > 100 µM (inactive) | > 100 µM (inactive) | 23.5 µM (inactive) | > 43.3 µM (inactive) | > 100 µM (inactive) | > 82.6 µM (inactive) | > 100 µM (inactive) | > 100 µM (inactive) | > 100 µM (inactive) | > 100 µM (inactive) | > 100 µM (inactive) | > 100 µM (inactive) | > 86.3 µM (inactive) | > 100 µM (inactive) | > 100 µM (inactive) | > 100 µM (inactive) | > 100 µM (inactive) | > 100 µM (inactive) | 0.955 µM (active) | –
CCN1CCN(c2nc3ccc([N+](=O)[O-])cc3nc2C(=O)c2ccccc2)CC1 | 15.8 µM (inactive) | 16.7 µM (inactive) | 2.12 µM (inactive) | 16.2 µM (inactive) | 17.1 µM (inactive) | 16.8 µM (inactive) | 4.98 µM (inactive) | 14.6 µM (inactive) | 16.3 µM (inactive) | 13.1 µM (inactive) | 17.2 µM (inactive) | 2.67 µM (inactive) | 14.8 µM (inactive) | 16.8 µM (inactive) | 16.8 µM (inactive) | 17.3 µM (inactive) | 12.8 µM (inactive) | 19.1 µM (inactive) | 26.7 µM (inactive) | 12.6 µM (inactive)
Cc1cc2c(cc1C)OC(=O)CC2 | > 100 µM (inactive) | > 100 µM (inactive) | > 100 µM (inactive) | > 100 µM (inactive) | > 100 µM (inactive) | > 100 µM (inactive) | > 100 µM (inactive) | > 100 µM (inactive) | > 100 µM (inactive) | > 100 µM (inactive) | > 100 µM (inactive) | > 100 µM (inactive) | > 100 µM (inactive) | > 100 µM (inactive) | > 100 µM (inactive) | > 100 µM (inactive) | > 100 µM (inactive) | > 100 µM (inactive) | > 100 µM (inactive) | > 100 µM (inactive)
CC(C)(C)c1cc(C(=O)/C=C/c2ccc3c(c2)CCO3)cc(C(C)(C)C)c1O | 1.69 µM (inactive) | 0.724 µM (active) | 1.07 µM (active) | 0.701 µM (active) | 1.2 µM (inactive) | 0.49 µM (active) | 1.57 µM (inactive) | 2.28 µM (inactive) | 0.327 µM (active) | > 100 µM (inactive) | 1.14 µM (inactive) | 0.323 µM (active) | 0.614 µM (active) | 5.07 µM (inactive) | 1.63 µM (inactive) | 0.891 µM (active) | 0.984 µM (active) | 2.58 µM (inactive) | 4.86 µM (inactive) | 1.2 µM (inactive)
O=C(O)c1cccc(F)c1C(=O)c1ccc2ccccc2c1 | > 100 µM (inactive) | > 100 µM (inactive) | > 100 µM (inactive) | 2.99 µM (inactive) | > 100 µM (inactive) | > 100 µM (inactive) | > 100 µM (inactive) | > 100 µM (inactive) | > 100 µM (inactive) | > 100 µM (inactive) | – | 62.2 µM (inactive) | > 100 µM (inactive) | > 100 µM (inactive) | > 100 µM (inactive) | > 100 µM (inactive) | > 100 µM (inactive) | > 100 µM (inactive) | 3.94 µM (inactive) | > 100 µM (inactive)
CC(C)C(C/C=C1/CC(CO)(COC(=O)C2CCCCC2)OC1=O)C(C)C (stereo not drawn) | 13.3 µM (inactive) | 15.2 µM (inactive) | 17.2 µM (inactive) | 5.94 µM (inactive) | 17.5 µM (inactive) | 21.1 µM (inactive) | 14.2 µM (inactive) | 17 µM (inactive) | 34.7 µM (inactive) | 17.3 µM (inactive) | 16.6 µM (inactive) | 17.3 µM (inactive) | 21.3 µM (inactive) | 18.5 µM (inactive) | 17.7 µM (inactive) | 17.1 µM (inactive) | – | 17.6 µM (inactive) | 21.3 µM (inactive) | 17.7 µM (inactive)
CN1[C@@H]2C[C@@H](OC(=O)[C@H](CO)c3ccccc3)C[C@H]1[C@@H]1O[C@@H]12 [SCOPOLAMINE HYDROBROMIDE] | > 100 µM (inactive) | > 100 µM (inactive) | > 100 µM (inactive) | > 100 µM (inactive) | > 100 µM (inactive) | > 100 µM (inactive) | > 100 µM (inactive) | > 100 µM (inactive) | > 100 µM (inactive) | > 100 µM (inactive) | > 100 µM (inactive) | > 100 µM (inactive) | > 100 µM (inactive) | > 100 µM (inactive) | > 100 µM (inactive) | > 100 µM (inactive) | > 100 µM (inactive) | – | > 100 µM (inactive) | > 100 µM (inactive)
